For twelve compounds, GI50 and TGI results are on record in PubChem BioAssay (NCI).

Several values for one entry are separate records, joined by “and”; a condition that tells them apart may be missing. Identical values can stand only once.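 All cell lines were grown in 96-well plates and treated with compound for 48 hours. Here, GI50 denotes the concentration required for 50% inhibition of growth. At the TGI there is no net growth.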 Where only a bound is given, the exact number is not on record here.

Among the test systems are ACHN renal; DU-145 prostate; HCC-2998 colon; HCT-116 colon; HOP-62 NSCLC; HOP-92 NSCLC; IGROV1 ovarian; NCI-H226 lung; SK-MEL-2 melanoma; SR leukemia.
Assay in all cases: NCI anticancer screen, dose series, 48 h

On to `Cc1ccc(/C(=N/Nc2ccc([N+](=O)[O-])cc2)Sc2cc(Cl)c(C)cc2S(N)(=O)=O)cc1`, for which the GI50 was 2.37 µM in the test with ACHN renal; 1.75 µM in the test on DU-145 prostate; 1.76 µM with HCC-2998 colon; 1.13 µM in the test with HCT-116 colon; 2.35 µM with HOP-62 NSCLC; 1.45 µM in the test with HOP-92 NSCLC. The GI50 in the test on IGROV1 ovarian was 2.44 µM; with NCI-H226 lung, 1.64 µM; in the test on SK-MEL-2 melanoma it was 4.9 µM; with SR leukemia, 0.945 µM. For the same compound, the TGI worked out at 6.51 µM in the test with ACHN renal; 4.1 µM in the test with DU-145 prostate; 3.66 µM in the test on HCC-2998 colon; 2.34 µM with HCT-116 colon; 5.34 µM in the test with HOP-62 NSCLC; 3.77 µM with HOP-92 NSCLC. For the same compound, the TGI in the test on IGROV1 ovarian was determined as 14.6 µM; in the test with NCI-H226 lung, 3.57 µM; in the test on SK-MEL-2 melanoma it was 20 µM; with SR leukemia, 3.55 µM.
`Cn1c(I)c(C#C[Si](C)(C)C)c(=O)n(C(=O)c2ccccc2)c1=O`: the GI50 in the test with ACHN renal is 2.9 µM; in the test on DU-145 prostate it was 1.95 µM; with HCC-2998 colon it was 6.78 µM; in the test with HCT-116 colon, 1.74 µM; with HOP-62 NSCLC, 11.7 µM; with HOP-92 NSCLC, 2.6 µM. The GI50 in the test on IGROV1 ovarian was 1.74 µM; with NCI-H226 lung, 7.44 µM; with SK-MEL-2 melanoma it was 12.8 µM; in the test with SR leukemia, 1.89 µM. Moreover, the TGI in the test with ACHN renal was determined as 7.83 µM; in the test with DU-145 prostate it was 3.78 µM; in the test on HCC-2998 colon, 21.6 µM; with HCT-116 colon, 3.44 µM; with HOP-62 NSCLC it was 25.8 µM; in the test with HOP-92 NSCLC it was 13.6 µM. Further, the TGI with IGROV1 ovarian worked out at 3.45 µM; with NCI-H226 lung, 21.7 µM; in the test on SK-MEL-2 melanoma, 26 µM.
Take `O=S(=O)(NC1=NCCN1C(=S)SN1CCn2c1nsc2=S)c1ccc(Cl)cc1`: the GI50 in the test on ACHN renal is 6.05 µM; with DU-145 prostate, 7.9 µM; in the test with HCC-2998 colon, 11 µM; with HCT-116 colon, 5.15 µM; with HOP-62 NSCLC, 19.5 µM; with HOP-92 NSCLC, 11.4 µM. Also, the GI50 with IGROV1 ovarian is 10.2 µM; in the test on NCI-H226 lung it was 5.77 µM; in the test on SK-MEL-2 melanoma, 5.93 µM; with SR leukemia it was 2.4 µM. Besides, the TGI with ACHN renal was determined as 18.6 µM; with DU-145 prostate it was 30.9 µM; in the test with HCC-2998 colon it was 23.6 µM; in the test on HCT-116 colon it was 21.1 µM; in the test on HOP-62 NSCLC, 41 µM; with HOP-92 NSCLC, 25.2 µM. The TGI with IGROV1 ovarian was determined as 23.4 µM; in the test with NCI-H226 lung, 20.7 µM; in the test with SK-MEL-2 melanoma, 22.7 µM; in the test on SR leukemia, 6.51 µM.
Turning to `O=C(Nc1n[nH]c2cc(-c3cc(F)ccc3F)ccc12)C1CC1`, the GI50 is > 25 µM in the test with ACHN renal; 17.7 µM with DU-145 prostate; 14.4 µM with HCC-2998 colon; 9.78 µM in the test on HCT-116 colon; 15.2 µM in the test on HOP-62 NSCLC; > 25 µM in the test on HOP-92 NSCLC. Also, the GI50 in the test with IGROV1 ovarian was > 25 µM; with NCI-H226 lung, 18.4 µM; in the test on SK-MEL-2 melanoma it was 12.2 µM; in the test with SR leukemia, 6.38 µM. The TGI with ACHN renal, in the test on DU-145 prostate, with HCC-2998 colon, in the test with HCT-116 colon, with HOP-62 NSCLC and in the test on HOP-92 NSCLC was > 25 µM throughout. Moreover, the TGI with IGROV1 ovarian, in the test with NCI-H226 lung, in the test with SK-MEL-2 melanoma and in the test with SR leukemia was > 25 µM throughout.
On to `[N-]=[N+]=CC(=O)CCC(N)C(=O)O` (configuration not stated), for which the GI50 was 5.54 µM with ACHN renal; 5.58 µM in the test on DU-145 prostate; 62.7 µM in the test with HCC-2998 colon; 0.457 µM and 0.955 µM in the test with HCT-116 colon; 3.51 µM with IGROV1 ovarian; 24.6 µM in the test on SK-MEL-2 melanoma. Further, the TGI is > 250 µM with ACHN renal; > 250 µM in the test on DU-145 prostate; > 250 µM in the test on HCC-2998 colon; > 250 µM in the test with HCT-116 colon; 43.2 µM with HOP-62 NSCLC; 69.3 µM in the test on HOP-92 NSCLC. For the same compound, the TGI in the test on IGROV1 ovarian is 43 µM and > 134 µM; in the test on NCI-H226 lung it was > 250 µM; in the test on SK-MEL-2 melanoma it was 245 µM; in the test on SR leukemia, > 231 µM.
On to `COc1cc(/C=N/NC(=O)c2cnn3c2NC(c2ccccc2)C3)ccc1OC1CCCC1` (configuration not stated), for which the GI50 in the test on ACHN renal was 0.666 µM; in the test with DU-145 prostate, 1.06 µM; in the test with HCC-2998 colon it was 3.19 µM; with HCT-116 colon, 0.518 µM; in the test with HOP-62 NSCLC, 0.83 µM; in the test with HOP-92 NSCLC, 0.684 µM. The GI50 in the test on IGROV1 ovarian is 0.723 µM; in the test with NCI-H226 lung, 1.64 µM; with SK-MEL-2 melanoma, 0.948 µM; in the test on SR leukemia, 0.252 µM. Besides, the TGI with ACHN renal was 6.04 µM; in the test with DU-145 prostate, 7.03 µM; with HCC-2998 colon it was 19.7 µM; in the test with HCT-116 colon, 3.46 µM; with HOP-62 NSCLC it was 6.47 µM; with HOP-92 NSCLC it was 3.69 µM. In addition, the TGI was found to be 9.4 µM in the test on IGROV1 ovarian, 6.12 µM with NCI-H226 lung, 6.06 µM in the test on SK-MEL-2 melanoma and 3.78 µM with SR leukemia.
`COC1=CC(=O)O/C1=C(\OC)C1OC1c1ccccc1` (configuration not stated): the TGI in the test with ACHN renal, in the test with DU-145 prostate, in the test on HCC-2998 colon, with HCT-116 colon, in the test with HOP-62 NSCLC and in the test with HOP-92 NSCLC was > 100 µM each time. In addition, the TGI is > 100 µM with IGROV1 ovarian, > 100 µM in the test with NCI-H226 lung, > 100 µM with SK-MEL-2 melanoma and 93.8 µM with SR leukemia.
Regarding `C=C1C(=O)O[C@@H]2/C=C(/C)[C@@H](OC(C)=O)C/C=C(\C)C(O)[C@@H](OC(=O)/C(C)=C\C)C12` (some centres not stated), the TGI is 40.8 µM in the test with ACHN renal; > 100 µM with DU-145 prostate; 55.4 µM with HCC-2998 colon; 29.8 µM in the test with HCT-116 colon; > 100 µM in the test with HOP-62 NSCLC; 50.3 µM with HOP-92 NSCLC. The TGI was > 100 µM in the test on IGROV1 ovarian, > 100 µM in the test with NCI-H226 lung, 76.8 µM with SK-MEL-2 melanoma and 55.6 µM in the test on SR leukemia.
Regarding `O=C1C(=O)c2c(nc3ccc(C(F)(F)F)cn23)-c2ccccc21`, the GI50 with ACHN renal is 0.185 µM; with DU-145 prostate, 0.185 µM; in the test with HCC-2998 colon, 0.499 µM; in the test on HCT-116 colon, 0.176 µM; in the test on HOP-62 NSCLC, 0.169 µM; with HOP-92 NSCLC it was 0.265 µM. For the same compound, the GI50 with IGROV1 ovarian is 0.191 µM; in the test on NCI-H226 lung, 0.72 µM; in the test on SK-MEL-2 melanoma, 0.209 µM; in the test with SR leukemia, 0.225 µM. Also, the TGI in the test on ACHN renal worked out at 0.381 µM; in the test with DU-145 prostate, 0.345 µM; in the test on HCC-2998 colon it was 0.988 µM; in the test on HCT-116 colon it was 0.354 µM; with HOP-62 NSCLC, 0.339 µM; with HOP-92 NSCLC it was 0.773 µM. Besides, the TGI is 0.47 µM in the test with IGROV1 ovarian, 1.77 µM in the test on NCI-H226 lung, 0.434 µM with SK-MEL-2 melanoma and > 100 µM in the test with SR leukemia.
Turning to `Cc1cccc(C2NC(=O)c3ccccc3N2)c1` (configuration not stated), the TGI was > 100 µM in the test on ACHN renal; > 100 µM in the test with DU-145 prostate; > 100 µM in the test on HCC-2998 colon; > 100 µM in the test on HCT-116 colon; 97.1 µM in the test on HOP-62 NSCLC; > 100 µM in the test on HOP-92 NSCLC. For the same compound, the TGI with IGROV1 ovarian is > 100 µM; in the test on NCI-H226 lung, 50.5 µM; with SK-MEL-2 melanoma, > 42.8 µM; in the test with SR leukemia it was > 100 µM.
In the case of `CCCCNC(c1ccc(Cl)cc1)C(O)c1ccc(Cl)cc1` (configuration not stated), the GI50 in the test on ACHN renal was 2.46 µM; with DU-145 prostate it was 3.1 µM; in the test on HCC-2998 colon, 1.83 µM; in the test with HCT-116 colon, 0.938 µM; in the test on HOP-62 NSCLC it was 2.19 µM; with HOP-92 NSCLC, 1.13 µM. Moreover, the GI50 with IGROV1 ovarian was 2.41 µM; in the test on NCI-H226 lung it was 6.58 µM; in the test with SK-MEL-2 melanoma it was 1.81 µM; in the test with SR leukemia, 1.07 µM. Besides, the TGI turned out to be 7.36 µM with ACHN renal; 10.4 µM in the test on DU-145 prostate; 3.85 µM in the test with HCC-2998 colon; 2.27 µM in the test with HCT-116 colon; 9.71 µM with HOP-62 NSCLC; 5.16 µM in the test with HOP-92 NSCLC. The TGI with IGROV1 ovarian turned out to be 12.4 µM; with NCI-H226 lung, 25.1 µM; in the test with SK-MEL-2 melanoma, 3.68 µM; in the test on SR leukemia it was 3.75 µM.
In the case of `C[C@@H]1C[C@@H]([C@H](O)CC2CC(=O)NC(=O)C2)C(=O)[C@@H](C)C1`, the GI50 in the test with ACHN renal is 0.155 µM; in the test on DU-145 prostate it was 0.247 µM; with HCC-2998 colon, 0.325 µM; in the test on HCT-116 colon it was 0.197 µM; in the test on HOP-62 NSCLC it was 0.26 µM; in the test on HOP-92 NSCLC, 0.178 µM. The GI50 is 0.388 µM in the test with IGROV1 ovarian, 0.326 µM in the test with NCI-H226 lung, 0.164 µM with SK-MEL-2 melanoma and 0.28 µM with SR leukemia. In addition, the TGI is 7.93 µM and 3.63 µM in the test on HCC-2998 colon; 4.35 µM and 1.42 µM in the test on HCT-116 colon; 3.63 µM and 1.67 µM in the test on HOP-62 NSCLC; 7.57 µM and 2.05 µM with HOP-92 NSCLC; 15 µM and 3.15 µM in the test with IGROV1 ovarian; 7.26 µM and 4.86 µM with NCI-H226 lung. Also, the TGI in the test with SK-MEL-2 melanoma was 1.07 µM and 3.27 µM.
